We go through 15 molecules from patent publication US11530213B2, “Naphthyridinone derivatives and their use in the treatment of arrhythmia” (NOVARTIS AG, priority 2016, dated 2022).

The target of this experiment is GIRK1/4 (Homo sapiens (Human), UniProt P48544+P48549). As to the kind of experiment: GIRK1/4 inhibition, Quattro (IonWorks) population patch clamp, inward potassium current in GIRK 1/4 HEK293 stable cells (test assay No. 1). The format is cell-based. As to conditions: percentage of current inhibition normalized to DMSO-only control. In short, it runs like this: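 GIRK1/4-expressing HEK293 cells were recorded by IonWorks Quattro perforated patch (amphotericin B), with inward K+ current measured at 1200-1220 ms during a −120 to 40 mV ramp, before and after compound (50-0.1 µM or 0.5-0.01 µM final, quadruplicate). IC50 came from % current inhibition normalized to DMSO control.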
Chain of GIRK1/4 (P48549 whole entry): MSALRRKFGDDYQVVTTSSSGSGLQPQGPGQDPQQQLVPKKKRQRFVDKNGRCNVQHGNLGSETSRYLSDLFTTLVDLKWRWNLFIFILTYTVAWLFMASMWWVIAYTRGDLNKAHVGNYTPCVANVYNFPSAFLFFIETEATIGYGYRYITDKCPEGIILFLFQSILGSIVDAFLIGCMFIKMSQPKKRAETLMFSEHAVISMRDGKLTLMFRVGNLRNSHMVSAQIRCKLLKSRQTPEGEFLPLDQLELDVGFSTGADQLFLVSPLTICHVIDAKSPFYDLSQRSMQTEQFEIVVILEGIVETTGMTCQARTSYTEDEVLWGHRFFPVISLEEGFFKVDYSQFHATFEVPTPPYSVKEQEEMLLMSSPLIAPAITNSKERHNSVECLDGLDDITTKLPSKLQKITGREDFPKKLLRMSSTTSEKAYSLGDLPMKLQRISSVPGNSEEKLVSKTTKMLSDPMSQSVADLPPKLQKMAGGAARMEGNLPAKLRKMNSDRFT
Chain of GIRK1/4 (P48544 whole entry): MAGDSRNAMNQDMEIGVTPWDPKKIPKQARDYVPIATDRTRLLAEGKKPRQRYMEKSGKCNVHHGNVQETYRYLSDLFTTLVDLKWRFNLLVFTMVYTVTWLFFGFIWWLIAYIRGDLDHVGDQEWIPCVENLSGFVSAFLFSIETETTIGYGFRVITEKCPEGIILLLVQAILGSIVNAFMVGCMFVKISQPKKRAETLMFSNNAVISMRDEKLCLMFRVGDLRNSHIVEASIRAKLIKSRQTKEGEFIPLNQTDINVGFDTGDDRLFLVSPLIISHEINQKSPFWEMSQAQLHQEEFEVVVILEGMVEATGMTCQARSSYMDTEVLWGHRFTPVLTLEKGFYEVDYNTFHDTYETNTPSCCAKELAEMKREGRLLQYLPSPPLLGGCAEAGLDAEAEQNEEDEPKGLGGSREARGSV

Molecule `Cc1cc(=O)c2c(-c3cnn(C)c3)cncc2n1-c1c(Cl)cc(C#N)cc1Cl` [Example 73, 3,5-Dichloro-4-(2-methyl-5-(1-methyl-1H-pyrazol-4-yl)-4-oxo-1,7-naphthyridin-1(4H)-yl)benzonitrile] showed an IC50 of 329 nM. Take `O=c1cc(CO)n(-c2c(Cl)cccc2Cl)c2c(Cl)cnc(CCCO)c12` [Example 74, 8-Chloro-1-(2,6-dichlorophenyl)-2-(hydroxymethyl)-5-(3-hydroxypropyl)-1,6-naphthyridin-4(1H)-one]: it took 69 nM to reach half-maximal inhibition (IC50). For the molecule `O=c1cc(CO)n(-c2c(Cl)cccc2Cl)c2c(Cl)cnc(CCC(O)CO)c12` (stereo not drawn) [Example 75, 8-Chloro-1-(2,6-dichlorophenyl)-5-(3,4-dihydroxybutyl)-2-(hydroxymethyl)-1,6-naphthyridin-4(1H)-one], the IC50 came out at 214 nM.

As to `O=c1cc(CO)n(-c2c(Cl)cccc2Cl)c2c(Cl)cnc(CC(O)CO)c12` (stereo not drawn) [Example 78, 8-Chloro-1-(2,6-dichlorophenyl)-5-(2,3-dihydroxypropyl)-2-(hydroxymethyl)-1,6-naphthyridin-4(1H)-one], the IC50 is 352 nM. Next, `Cc1cc(=O)c2c(CC(O)CO)ncc(Cl)c2n1-c1c(Cl)cccc1Cl` (stereo not drawn) [Example 81, 8-Chloro-1-(2,6-dichlorophenyl)-5-(2,3-dihydroxpropyl)-2-methyl-1,6-naphthyridin-4(1H)-one]: 23 nM. `O=c1cc(CO)n(-c2c(Cl)cccc2Cl)c2c(Cl)cnc(C(O)CO)c12` (stereo not drawn) [Example 82, 8-Chloro-1-(2,6-dichlorophenyl)-5-(1,2-dihydroxyethyl)-2-(hydroxymethyl)-1,6-naphthyridin-4(1H)-one] gave an IC50 of 147 nM. Turning to `Cc1cc(=O)c2c(C(O)CO)ncc(Cl)c2n1-c1c(Cl)cccc1Cl` (stereo not drawn) [Example 85, 8-Chloro-1-(2,6-dichlorophenyl)-5-(1,2-dihydroxyethyl)-2-methyl-1,6-naphthyridin-4(1H)-one], 19 nM corresponded to half-maximal inhibition (IC50). The same measure for `Cc1cc(=O)c2c(C(=O)CO)ncc(Cl)c2n1-c1c(Cl)cccc1Cl` [Example 86, 8-Chloro-1-(2,6-dichlorophenyl)-5-(2-hydroxyacetyl)-2-methyl-1,6-naphthyridin-4(1H)-one]: 37 nM; for `O=c1cc(CO)n(-c2c(Cl)cccc2Cl)c2c(Cl)cnc(COCC(O)CO)c12` (stereo not drawn) [Example 87, 8-Chloro-1-(2,6-dichlorophenyl)-5-((2,3-dihydroxypropoxy)methyl)-2-(hydroxymethyl)-1,6-naphthyridin-4(1H)-one]: 2260 nM; for `O=c1cc(CO)n(-c2c(Cl)cccc2Cl)c2c(Cl)cnc(COC(CO)CO)c12` [Example 88, 8-Chloro-1-(2,6-dichlorophenyl)-5-(((1,3-dihydroxypropan-2-yl)oxy)methyl)-2-(hydroxymethyl)-1,6-naphthyridin-4(1H)-one]: 1230 nM. `Cc1cc(=O)c2c(C(C)(O)C(=O)CO)ncc(Cl)c2n1-c1c(Cl)cccc1Cl` (stereo not drawn) [Example 89, 8-Chloro-1-(2,6-dichlorophenyl)-5-(2,4-dihydroxy-3-oxobutan-2-yl)-2-methyl-1,6-naphthyridin-4(1H)-one]: the IC50 is 24 nM. Regarding `Cc1cc(=O)c2c(OCC(O)CO)ncc(Cl)c2n1-c1c(Cl)cc(C#CC(C)(C)N)cc1Cl` (stereo not drawn) [Example 90, 1-(4-(3-Amino-3-methylbut-1-yn-1-yl)-2,6-dichlorophenyl)-8-chloro-5-(2,3-dihydroxypropoxy)-2-methyl-1,6-naphthyridin-4(1H)-one], half-maximal inhibition (IC50) was put at 327 nM. As for `Cc1cc(=O)c2c(OCCO)ncc(Cl)c2n1-c1c(Cl)cc(C#CCN2CCOCC2)cc1Cl` [Example 91, 8-Chloro-1-(2,6-dichloro-4-(3-morpholinoprop-1-yn-1-yl)phenyl)-5-(2-hydroxyethoxy)-2-methyl-1,6-naphthyridin-4(1H)-one], the IC50 came to 40 nM. `Cc1cc(=O)c2c(OCCO)ncc(Cl)c2n1-c1c(Cl)cc(C#CCN2CCS(=O)(=O)CC2)cc1Cl` [Example 92, 8-Chloro-1-(2,6-dichloro-4-(3-(1,1-dioxidothiomorpholino)prop-1-yn-1-yl)phenyl)-5-(2-hydroxyethoxy)-2-methyl-1,6-naphthyridin-4(1H)-one]: it took 47 nM to reach half-maximal inhibition (IC50).

In turn, `Cc1cc(=O)c2c(OCC3COC(C)(C)O3)ncc(Cl)c2n1-c1c(Cl)cc(C#CCN(C)C)cc1Cl` (stereo not drawn) [Example 93, 8-Chloro-1-(2,6-dichloro-4-(3-(dimethylamino)prop-1-yn-1-yl)phenyl)-5-((2,2-dimethyl-1,3-dioxolan-4-yl)methoxy)-2-methyl-1,6-naphthyridin-4(1H)-one] returned an IC50 of 46 nM.
